# Assay results published in US10808005B2, “Ligand for orphan nuclear receptor Nur77 and uses thereof” (IXMEDICINE (XIAMEN) BIOLOGICAL TECHNOLOGY COMPANY LIMITED, priority 2016, dated 2020).
# Like-named read-outs stand apart in the source and are kept apart here.
# How the values were obtained:
# [1] = system: mTOR signaling pathway; experiment: Immunoblot of p-mTOR, p-P70S6K, p-S6 in TNFα-treated starved MDA-MB-231 cells; type: cell-based; settings: MDA-MB-231, serum-free 10 h; 2 μM and TNFα (20 ng/ml)
# [2] = system: MDA-MB-231 cells; experiment: Immunoblot of parp (apoptosis) in MDA-MB-231 cells; type: cell-based; settings: 4 μM and TNFα (20 ng/ml)
# [3] = molecular target: Nur77-LBD (Homo sapiens, UniProt P22736); experiment: Surface plasmon resonance (Biacore T200) binding to Nur77-LBD
# [4] = system: BT474, ZR-75-1, BT549, HCC1937, HS578T, MCF-7, and T47D; experiment: Inhibition rate on seven breast cancer cells; type: cell-based; settings: various breast cancer cells, FIG. 11C
# [5] = system: IκBα and phosphorylated IKKα/β; experiment: Immunoblot of IκBα and phosphorylated IKKα/β in TNFα-treated HepG2 cells; type: cell-based; settings: TNFα 20 ng/mL 30 minutes
# Source text: IκBα and phosphorylated IKKα/β in the cells were then detected by WB.
# In addition, HepG2 cells were also applied in the experiment. […] IκBα in the cells was then detected by WB.
# [6] = system: MDA-MB-231; experiment: Proliferation of MDA-MB-231 breast cancer cells; type: cell-based; settings: Homo sapiens
# [7] = system: MCF-7; experiment: Proliferation of MCF-7 breast cancer cells; type: cell-based; settings: Homo sapiens, read-out: IC50 for inhibiting the proliferation
# [8] = system: SKBR3; experiment: Proliferation of SKBR3 breast cancer cells; type: cell-based; settings: Homo sapiens, SK-BR-3; SKBR3, 72 h; read-out: IC50 for inhibiting the proliferation
# [9] = system: MDA-MB-468; experiment: Proliferation of MDA-MB-468 breast cancer cells; type: cell-based; settings: Homo sapiens, MDA-MB-468, 72 h; read-out: IC50 for inhibiting the proliferation
# [10] = system: T47D; experiment: Proliferation of T47D breast cancer cells; type: cell-based; settings: Homo sapiens, 72 h, read-out: IC50 for inhibiting the proliferation
# [11] = system: Nur77 knocked-out Hela cells; experiment: Proliferation of Nur77 knocked-out Hela cells; type: cell-based; settings: Homo sapiens
# [12] = Acute toxicity model mice, histopathology; type: in vivo
# Source text: The tissue morphologies of the heart, liver, small intestine, white fat and kidney were observed by Histopathological method.
# [13] = system: wild-type Hela cells; experiment: Proliferation of wild-type Hela cells; type: cell-based; settings: Homo sapiens
# [14] = system: BT549; experiment: Proliferation of BT549 breast cancer cells; type: cell-based; settings: Homo sapiens, BT-549; BT549, 72 h; read-out: IC50 for inhibiting the proliferation
# [15] = Biacore T200, read-out: dissociation constant (Kd) to Nur77-LBD
# [16] = MDA-MB-231, FIG. 11B, read-out: IC50 for the inhibition of proliferation
# [17] = single intragastric injection 200 mg/kg
# [18] = single intraperitoneal injection 20 mg/kg
# Sequence of Nur77-LBD (P22736 360-595 limits assumed): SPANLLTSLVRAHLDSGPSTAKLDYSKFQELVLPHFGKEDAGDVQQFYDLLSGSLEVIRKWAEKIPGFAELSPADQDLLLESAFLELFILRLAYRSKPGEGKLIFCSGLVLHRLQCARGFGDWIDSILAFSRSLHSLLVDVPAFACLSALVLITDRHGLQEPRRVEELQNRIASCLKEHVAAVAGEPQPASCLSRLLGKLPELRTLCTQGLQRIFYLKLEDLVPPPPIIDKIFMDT
smiles,measurement,setting,value
CCOC(=O)COC(=O)[C@]1(C)CC[C@]2(C)CC[C@]3(C)C4=CC=C5C(=CC(=O)C(O)=C5C)[C@]4(C)CC[C@@]3(C)[C@@H]2C1 [XS0418],"P-mTOR, P-p70S6K, and P—S6 in comparison with YXY101",[1],"can more significantly reduce P-mTOR, P-p70S6K, and P—S6"
same,PARP cleavage in comparison with YXY101,[2],can more significantly induce PARP cleavage
same,Kd,[3]; [15],3.67 µM
same,inhibitory effects on proliferation compared with YXY101,[4],close or even stronger than that of YXY101
CC1=C(O)C(=O)C=C2C1=CC=C1[C@@]2(C)CC[C@@]2(C)[C@@H]3C[C@](C)(C(=O)OP(=O)(OC(C)C)OC(C)C)CC[C@]3(C)CC[C@]12C [XS0492],"P-mTOR, P-p70S6K, and P—S6 in comparison with YXY101",[1],"can more significantly reduce P-mTOR, P-p70S6K, and P—S6"
same,PARP cleavage in comparison with YXY101,[2],can more significantly induce PARP cleavage
same,Kd,[3]; [15],1.3 µM
COC(=O)[C@]1(C)CC[C@]2(C)CC[C@]3(C)C4=CC(S(=O)(=O)[O-])c5c(cc(O)c(O)c5C)[C@]4(C)CC[C@@]3(C)[C@@H]2C1.[Na+] (stereo partly shown) [XS0508],PARP cleavage in comparison with YXY101,[2],can more significantly induce PARP cleavage
COc1ccc(NC(=O)[C@]2(C)CC[C@]3(C)CC[C@]4(C)C5=CC=C6C(=CC(=O)C(O)=C6C)[C@]5(C)CC[C@@]4(C)[C@@H]3C2)cc1 [XS0287],TNFα-induced degradation of IκBα,[5],capable of inhibiting TNFα-induced degradation of IκBα
Cc1c(O)c(O)cc2c1CC=C1[C@@]2(C)CC[C@@]2(C)[C@@H]3C[C@](C)(CO)CC[C@]3(C)CC[C@]12C [XS0503],IC50,"[6]; MDA-MB-231, 24 h, read-out: IC50 for inhibiting the proliferation",1.19 µM
same,IC50,"[7]; MCF7, MCF-7, 24 h",2.65 µM
Cc1c(O)c(O)cc2c1CCC1[C@@]2(C)CC[C@@]2(C)[C@@H]3C[C@](C)(C(=O)O)CC[C@]3(C)CC[C@]12C (stereo partly shown) [XS0335],"P-mTOR, P-p70S6K, and P—S6 in comparison with YXY101",[1],"can more significantly reduce P-mTOR, P-p70S6K, and P—S6"
same,IC50,[6]; [16],1.88 µM
CCOC(=O)OC1=C(C)C2=CC=C3[C@@](C)(CC[C@@]4(C)[C@@H]5C[C@](C)(C(=O)O)CC[C@]5(C)CC[C@]34C)C2=CC1=O [XS0394],"P-mTOR, P-p70S6K, and P—S6 in comparison with YXY101",[1],"can more significantly reduce P-mTOR, P-p70S6K, and P—S6"
same,Kd,[3]; [15],1.26 µM
COP(=O)(OC)OC(=O)[C@]1(C)CC[C@]2(C)CC[C@]3(C)C4=CC=C5C(=CC(=O)C(O)=C5C)[C@]4(C)CC[C@@]3(C)[C@@H]2C1 [XS0486],"P-mTOR, P-p70S6K, and P—S6 in comparison with YXY101",[1],"can more significantly reduce P-mTOR, P-p70S6K, and P—S6"
"CC1=C(O)C(=O)C=C2C1=CC=C1[C@@]2(C)CC[C@@]2(C)[C@@H]3C[C@](C)(C(=O)O)CC[C@]3(C)CC[C@]12C [YXY101, Celastrol]",IC50,[8],2.65 µM
same,IC50,[9],0.187 µM
same,IC50,[10],74.5 µM
same,IC50,"[6]; MDA-MB-231, 72 h, read-out: IC50 for inhibiting the proliferation",1.2 µM
same,IC50,[11],58.2 µM
same,adipose tissue morphology,[12]; [17],the adipose tissue cells were arranged disorderly and some of the fibers were broken
same,heart tissue morphology,[12]; [17],arranged disorderly
same,liver tissue morphology,[12]; [17],"the lobuli hepatis boundaries were blurred, the cytoplasm was reduced, and most of the hepatocytes died"
same,small intestine tissue morphology,[12]; [17],"the intestinal tissue was swollen apparently, the cell death increases, the inflammatory reaction was obvious, the intestinal villi were arranged disorderly"
same,adipose tissue morphology,[12]; [18],the adipose tissue cells were arranged disorderly and had many inflammatory cell infiltration
same,heart tissue morphology,[12]; [18],arranged disorderly
same,kidney tissue morphology,[12]; [18],"the kidney tissue had blurred glomerulus boundaries and many inflammatory cell infiltration, and the arrangement was not neat"
same,liver tissue morphology,[12]; [18],"the lobuli hepatis had substantially obvious boundaries, the hepatocytes were plump and had normal morphology"
same,IC50,[13],1.19 µM
same,IC50,"[7]; MCF7, 72 h",11.5 µM
same,IC50,[14],0.245 µM
Cc1c(O)c(O)cc2c1CC=C1[C@@]2(C)CC[C@@]2(C)[C@@H]3C[C@](C)(C(=O)O)CC[C@]3(C)CC[C@]12C [XS0419],"P-mTOR, P-p70S6K, and P—S6 in comparison with YXY101",[1],"can more significantly reduce P-mTOR, P-p70S6K, and P—S6"
same,PARP cleavage in comparison with YXY101,[2],can more significantly induce PARP cleavage
same,IC50,[6]; [16],1.27 µM
same,Kd,[3],0.404 µM
same,inhibitory effects on proliferation compared with YXY101,[4],close or even stronger than that of YXY101
[2H]C1C=C2[C@@](C)(CC[C@@]3(C)[C@@H]4C[C@](C)(C(=O)O)CC[C@]4(C)CC[C@]23C)c2cc(O)c(O)c(C)c21 (stereo partly shown) [XS0474],"P-mTOR, P-p70S6K, and P—S6 in comparison with YXY101",[1],"can more significantly reduce P-mTOR, P-p70S6K, and P—S6"
same,IC50,[6]; [16],2.93 µM
same,Kd,[3],2.6 µM
COC(=O)[C@]1(C)CC[C@]2(C)CC[C@]3(C)C4=CC=C5C(=CC(=O)C(O)=C5C)[C@]4(C)CC[C@@]3(C)[C@@H]2C1 [XS0077],PARP cleavage in comparison with YXY101,[2],can more significantly induce PARP cleavage
same,IC50,"[6]; MDA-MB-231, read-out: IC50 for the inhibition of proliferation",1.84 µM
CCCC(=O)OC1=C(C)C2=CC=C3[C@@](C)(CC[C@@]4(C)[C@@H]5C[C@](C)(C(=O)OC)CC[C@]5(C)CC[C@]34C)C2=CC1=O [XS0488],IC50,[6]; [16],1.9 µM
same,Kd,[3]; [15],1.28 µM
same,inhibitory effects on proliferation compared with YXY101,[4],close or even stronger than that of YXY101
CCOP(=O)(OCC)OC(=O)[C@]1(C)CC[C@]2(C)CC[C@]3(C)C4=CC=C5C(=CC(=O)C(O)=C5C)[C@]4(C)CC[C@@]3(C)[C@@H]2C1 [XS0491],"P-mTOR, P-p70S6K, and P—S6 in comparison with YXY101",[1],"can more significantly reduce P-mTOR, P-p70S6K, and P—S6"
same,Kd,[3],0.336 µM
CCOC(=O)[C@]1(C)CC[C@]2(C)CC[C@]3(C)C4=CC=C5C(=CC(=O)C(O)=C5C)[C@]4(C)CC[C@@]3(C)[C@@H]2C1 [XS0462],inhibitory effects on proliferation compared with YXY101,[4],close or even stronger than that of YXY101
CC1=C(O)C(=O)C=C2C1=CC=C1[C@@]2(C)CC[C@@]2(C)[C@@H]3C[C@](C)(C(=O)OCc4ccccc4)CC[C@]3(C)CC[C@]12C [XS0285],inhibitory effects on proliferation compared with YXY101,[4],close or even stronger than that of YXY101
